Measurements: patent publication US20230339878A1, “SLC26A3 INHIBITORS AND USE THEREOF” (THE REGENTS OF THE UNIVERSITY OF CALIFORNIA, priority 2018, published 2023)
“Also recorded” adds a separate entry of the source.

Tests used:
slc26a9 = biological target: T1, slc26a9 (Mus musculus, UniProt Q8BU91); experiment: Selectivity: slc26a9 Cl-/I- exchange in HEK293 cells; assay type: cell-based, murine; conditions: 10 µM
T1 construct: host or cells: HEK293 cells
T1 sequence (Q8BU91 1-790): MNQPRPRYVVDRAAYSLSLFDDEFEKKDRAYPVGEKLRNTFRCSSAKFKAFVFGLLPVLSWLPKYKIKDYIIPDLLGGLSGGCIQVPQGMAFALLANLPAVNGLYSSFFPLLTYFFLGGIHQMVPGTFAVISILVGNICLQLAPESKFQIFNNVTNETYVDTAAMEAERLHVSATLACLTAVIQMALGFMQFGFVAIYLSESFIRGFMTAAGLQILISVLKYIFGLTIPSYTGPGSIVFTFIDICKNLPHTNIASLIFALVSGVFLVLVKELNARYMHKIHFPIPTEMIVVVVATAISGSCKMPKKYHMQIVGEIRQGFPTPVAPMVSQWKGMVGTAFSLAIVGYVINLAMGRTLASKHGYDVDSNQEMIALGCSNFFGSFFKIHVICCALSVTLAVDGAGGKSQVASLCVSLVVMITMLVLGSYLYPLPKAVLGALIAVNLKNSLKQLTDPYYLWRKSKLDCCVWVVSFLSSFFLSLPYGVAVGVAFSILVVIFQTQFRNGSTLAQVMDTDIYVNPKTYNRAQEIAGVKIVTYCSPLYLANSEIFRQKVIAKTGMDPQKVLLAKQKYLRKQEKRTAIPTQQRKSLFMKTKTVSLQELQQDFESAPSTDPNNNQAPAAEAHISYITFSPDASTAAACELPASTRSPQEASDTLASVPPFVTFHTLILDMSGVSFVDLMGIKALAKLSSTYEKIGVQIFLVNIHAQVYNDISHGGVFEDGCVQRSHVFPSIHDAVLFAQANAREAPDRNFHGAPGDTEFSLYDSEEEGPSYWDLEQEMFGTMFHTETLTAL
Source text: (§1) To investigate Compound A1 selectivity, transport assays were done on a panel of SLC26-family homologs, and other relevant epithelial ion transporters and channels. […] In separate studies, to investigate possible action of Compound A1 on multiple ion transporters and channels in a human epithelium, human bronchial epithelial (HBE) cells were studied by short-circuit current, with successive additions of amiloride (to block the epithelial sodium channel ENaC), forskolin, CFTRinh-172 (to block CFTR), and ATP (to activate the Ca^2+-activated chloride channel, CaCC) (FIG. 5C).
HEK293 cells transfected with pIRES-YFP-slc26a9 were plated in 96-well black-walled, clear-bottom tissue culture plates (Corning Life Sciences, Tewksbury, MA) after coating with FNC Coating Mix (AthenaES, Baltimore, MD). […] Assays of slc26a9-mediated anion exchange were done by initially recording YFP fluorescence prior to addition of 100 µL of NaI-substituted PBS to test wells, with the initial rate of Cl^-/I^- exchange deduced from fluorescence intensity by single exponential regression. […] To assay SLC26A3 function, HEK293 cells transduced with lentiviral particles generated from the pLVX-IRES-mCherry-SLC26A3 transfer vector were transfected to express YFP for Cl^-/I^- exchange assays as described above; red fluorescence images were acquired to confirm SLC26A3 expression in cells. […]

pendrin (slc26a4) = biological target: T2, pendrin (slc26a4) (Mus musculus, UniProt Q9R155); experiment: Selectivity: pendrin-mediated Cl-/I- exchange, YFP assay; assay type: cell-based, murine; conditions: 10 µM
T2 construct: expressed in transfected cells; host or cells: FRT cells expressing YFP and slc26a4
T2 sequence (Q9R155 1-780): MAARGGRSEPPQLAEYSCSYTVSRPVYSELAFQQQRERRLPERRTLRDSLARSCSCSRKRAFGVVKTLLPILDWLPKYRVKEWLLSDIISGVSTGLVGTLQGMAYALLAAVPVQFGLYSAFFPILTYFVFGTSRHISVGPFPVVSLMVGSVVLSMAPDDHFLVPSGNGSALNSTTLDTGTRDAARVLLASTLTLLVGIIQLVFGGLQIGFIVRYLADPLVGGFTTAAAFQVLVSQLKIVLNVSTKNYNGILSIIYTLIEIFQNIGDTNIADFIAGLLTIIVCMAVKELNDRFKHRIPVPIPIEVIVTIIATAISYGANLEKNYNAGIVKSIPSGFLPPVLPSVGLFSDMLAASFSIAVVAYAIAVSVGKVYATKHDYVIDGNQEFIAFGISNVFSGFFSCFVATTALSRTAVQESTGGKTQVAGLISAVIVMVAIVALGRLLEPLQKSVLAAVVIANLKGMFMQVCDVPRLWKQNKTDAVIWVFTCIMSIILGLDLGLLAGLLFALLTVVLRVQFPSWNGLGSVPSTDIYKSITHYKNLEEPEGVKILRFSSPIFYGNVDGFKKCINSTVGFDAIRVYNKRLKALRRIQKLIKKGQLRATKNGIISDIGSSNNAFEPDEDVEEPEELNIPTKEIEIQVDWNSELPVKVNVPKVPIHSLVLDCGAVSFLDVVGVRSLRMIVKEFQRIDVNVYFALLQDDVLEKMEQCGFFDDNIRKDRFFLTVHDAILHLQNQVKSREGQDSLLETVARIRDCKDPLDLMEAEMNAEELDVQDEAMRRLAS
Source text: as §1
YFP-based assays of CFTR, pendrin and TMEM16A were as described. HEK cells transfected to express YFP and SLC26A3, slc26a6 or slc26a9 were functionally assayed using a Cl^-/I^- exchange protocol. Assays of Cl^-/HCO3^- exchange were done using BCECF as an intracellular pH indicator as described for pendrin. […]
HEK293 cells transfected with pIRES-YFP-slc26a9 were plated in 96-well black-walled, clear-bottom tissue culture plates (Corning Life Sciences, Tewksbury, MA) after coating with FNC Coating Mix (AthenaES, Baltimore, MD). […] Assays of slc26a9-mediated anion exchange were done by initially recording YFP fluorescence prior to addition of 100 µL of NaI-substituted PBS to test wells, with the initial rate of Cl^-/I^- exchange deduced from fluorescence intensity by single exponential regression. […]

In the case of Cc1c(CC(=O)O)c(=O)oc2c(C)c(OCc3cccc(Br)c3)ccc12 [Compound A1], the “effect on Cl-/I- exchange activity of slc26a9” value (slc26a9) was “did not alter; also recorded: differences not significant” and the “effect on Cl-/I- exchange activity of pendrin (slc26a4)” value (pendrin (slc26a4)) was “did not alter; also recorded: did not inhibit; also recorded: differences not significant”.
